Like-named read-outs stand apart in the source and are kept apart here.
What was measured:
KCNQ2 [1] = biological target: T1, KCNQ2 (Rattus norvegicus, UniProt O88943); assay: Whole-cell voltage clamp of CHO cells expressing KCNQ2; format: cell-based; set-up: expressed in transfected cells; host or cells: CHO cells; conditions: for effect on KCNQ2 current amplitude of metal salt added to sodium pyrithione perfusion: metal salt (ZnSO4 10 μM) supplemented to 20 μM sodium pyrithione
Experimental: Cell culture and transient transfection—Chinese Hamster Ovary (CHO) cells were grown in 50/50 DMEM/F12 (Cellgro) with 10% FBS (Gibco), 100 U/ml penicillin (Cellgro), 100 μg/ml streptomycin (Cellgro) and 2 mM L-glutamine (Gibco). At 24 hours before transfection, cells were split and plated in 60 mm dishes and were transfected with Lipofectamine2000™ reagent (Invitrogen) according to the manufacturer's instruction. At 24 hours after transfection, cells were split and re-plated onto coverslips coated with poly-L-lysine (Sigma). Plasmid expressing CD4 cDNA as a marker was cotransfected with the channel cDNAs of hKCNQ1 (from Dr. Michael Sanguinetti), hKCNQ4 (from Dr. Vitya Vardanyan), rKCNQ2, rKCNQ3, and hKCNQ5 (from Drs. David McKinnon, Mark Shapiro, and Thomas Jentsch). Prior to recording, anti-CD4 Dynabeads (Dynal. Biotech. Inc.) were added into the medium to allow for identification of the transfected cells. Stable lines expressing Kv2.1, hERG, and Kv4.2 were generated by standard protocols using pcDNA3.1 and maintained at complete medium supplemented with 500 μg/ml G418. The N-type calcium channel stable line was a kind gift from Drs. Diane Lipscombe and David Yue.
(§1) Electrophysiological Recording—Standard whole-cell recording was used. Pipettes were pulled from borosilicate glass capillaries (TW150-4, World Precision Instruments, Sarasota, Fla.). When filled with the intracellular solution, the pipettes have resistances of […]. During the recording, constant perfusion of extracellular solution was maintained using a BPS perfusion system (ALA, Westbury, N.Y.). Pipette solution contained (mM): KCl 145, MgCl2 1, EGTA 5, HEPES 10, MgATP 5 (pH 7.3); extracellular solution contained (mM): NaCl 140, KCl 3, CaCl2 2, MgCl2 1.5, HEPES 10, glucose 10 (pH 7.4). Current and voltage were recorded using an Axopatch-200A amplifier, filtered at 1 kHz and digitized using a DigiData 1322A with pClamp 9.2 software (Axon Instruments, Foster City, Calif.). Series resistance compensation was also used and set to 60-80%.
Data and Statistical Analysis—Patch-clamp data were preprocessed using Clampfit 9.2 (Axon Instruments, Foster City, Calif.) and then analyzed in Origin 7 (OriginLab, Northampton, Mass.). The activation curve was fitted by the Boltzmann equation: G=(Gmax−Gmin)/[1+exp[(V−V1/2)/S]]+Gmin, where Gmax is the maximum conductance, Gmin is the minimum conductance, V1/2 is the voltage for half of the total numbers of channels to open, and S is the slope factor. The dose response curve was fitted by the Hill equation: E=Emax/(1+(EC50/C)^P), where Emax is the maximum response, C is the drug concentration, EC50 is the drug concentration producing half of the maximum response, and P is the Hill coefficient. The deactivation trace was fitted by the standard exponential equation: I(t)=ΣIi*exp(−t/τi), where I is the current, t is the time and τ is the time constant. Data are presented as means±SE. Significance was estimated using paired two-tailed Student's t-test.

TRPM8 = TRPM8 (Homo sapiens, UniProt Q7Z2W7); conditions: shift from 32 mV; cited from earlier work
KCNQ2(A306T) = biological target: T2, KCNQ2(A306T) (Rattus norvegicus, UniProt O88943, A306T); assay: Whole-cell recording of KCNQ2(A306T) mutant in CHO cells; format: cell-based; conditions: retigabine
T2 construct: expressed in transfected cells; host or cells: CHO cells
Experimental: FIG. 9. KCNQ2 point mutants selectively lose ZnPy sensitivity. […] Each mutation site was indicated based on the predicted transmembrane regions. Dashed line indicates the potentiation level of wt KCNQ2 channel in the absence of ZnPy. […] C. Modeling of the S5-pore-S6 region of KCNQ2.
(§2) FIG. 11. ZnPy effects on BFNC mutant channels expressed in CHO cells. A. whole-cell currents of KCNQ2(R207W), KCNQ2(Y284C), and KCNQ2(A306T) were recorded in the absence (left) and presence (right) of 10 μM ZnPy, Vh was −80 mV, in 10 mV voltage steps from −70 mV to +50 mV. B. a histogram plotting potentiation effects on KCNQ2 wild type (wt) and BFNC mutants (R207W, Y284C and […]) by ZnPy (filled box) and retigabine (open box) (n≧4, * p<0.001, ** p<0.05).
(§3) Mutagenesis—Starting from KCNQ cDNAs, the KCNQ2 point mutants were constructed by recombinant PCR and verified by sequencing.
as §1

KCNQ2(R207W) = biological target: T3, KCNQ2(R207W) (Rattus norvegicus, UniProt O88943, R207W); assay: Whole-cell recording of KCNQ2(R207W) BFNC mutant in CHO cells; format: cell-based; conditions: retigabine
T3 construct: expressed in transfected cells; host or cells: CHO cells, transient
Experimental: as §2, §3
as §1, with “Series resistance compensation was also used and set to 60-80%.” left out

KCNQ2(Y284C) = biological target: T4, KCNQ2(Y284C) (Rattus norvegicus, UniProt O88943, Y284C); assay: Whole-cell recording of KCNQ2(Y284C) BFNC mutant in CHO cells; format: cell-based; conditions: retigabine
T4 construct: expressed in transfected cells; host or cells: CHO cells, transient
Experimental: as §2, §3
as §1, with “Series resistance compensation was also used and set to 60-80%.” left out

[2] = In vivo Geller conflict test for anxiolytics; set-up: species or system rats; conditions: positive control
Experimental: In the Geller conflict test (see, e.g., Geller & Seifter, Psychophamracologia 1:482-492 (1960: Pollard & Howard, Psychopharmacology 62:117-121 (1979)), rats are trained to press a lever to receive food pellets during daily 1 hour sessions. The sessions are divided into punished and unpunished phases. During the four, three-minute punished periods, a light signals that each lever press will produce both a pellet and a foot shock (punishment), which reduces lever pressing. The number of punished lever presses on test days (when test compound is administered) is compared to the mean on baseline days. The positive control, chlordiazepoxide, increases punished lever pressing by >50%. A compound that produces an increase of approximately 40% or greater is generally considered to be of interest as a rapid-onset anxiolytic.
A compound with selective KCNQ1 channel opening activity increases punished responding in a dose-dependent manner. The increase in punished responding is statistically significant (paired t-test p<0.05) at 10, 17, 30, and 56 mg/kg PO with increases of 40% or greater at 30 and 56 mg/kg.

hippocampal neurons = assay: Membrane potential and elicited action potentials of isolated hippocampal neurons; format: cell-based, rat; conditions: 15 μM linopirdine added after 10 μM ZnPy
Experimental: FIG. 10. ZnPy potentiation of native M-current. A. M current recorded from an isolated rat dorsal root ganglion neuron, Vh was −60 mV, stepped to −20 mV, followed by a step to −50 mV, and stepped back to −20 mV. B. Histograms show M-current amplitudes in the presence and absence of 10 μM ZnPy (n=10, * p<0.001). M-current amplitudes were measured by fitting the IM relaxation with an exponential equation. The recording bath solution includes 1 μM TTX, 0.2 mM TEA, 1 mM 4-AP, 50 μM CNQX, and 10 μM bicuculline. C. Membrane potential of an isolated hippocampal neuron was monitored when 10 μM ZnPy was applied in bath solution followed by the addition of 15 μM linopirdine. D. Action potentials elicited by 200 pA current injection to a patched hippocampal neuron. The ZnPy treatments are as indicated.
Neuron Culture—Dorsal root ganglia (DRG) was collected from fourteen-day-old CD rat and incubated in collagenase (sigma, 500 U/ml, 15 min) and then trypsin (Sigma, 1 mg/ml, 30 min) at 37° C. Single DRG neurons were isolated by mechanical trituration with a fire-polished glass Pasteur pipette. Hippocampal tissue was dissected out from CD rat postnatal day 0. The tissue was digested with papain (Worthington Biochem, 20 U/ml, 30 min) and resuspended into single cells. The single-cell suspension was plated onto a monolayer of glial cells that were growing on coated cover slips. Cytosine-1-D-arabinofuranoside at 5 μM was added into the culture medium 24-48 hours later to arrest glial cell proliferation. The culture medium consisted of Neurobasal™ medium with B-27 supplement (Gibco), penicillin/streptomycin and 2 mM L-glutamine. All cells were maintained at 37° C. with 5% CO2 prior to recording.
Electrophysiological Recording—Standard whole-cell recording was used. Pipettes were pulled from borosilicate glass capillaries (TW150-4, World Precision Instruments, Sarasota, Fla.). […] Current and voltage were recorded using an Axopatch-200A amplifier, filtered at 1 kHz and digitized using a DigiData 1322A with pClamp 9.2 software (Axon Instruments, Foster City, Calif.). […]

KCNQ2 [3] = biological target: T1, KCNQ2; assay: Single channel outside-out patch recording of KCNQ2; format: cell-based; set-up: expressed in transfected cells; host or cells: CHO cells; conditions: 50 μM linopirdine
Experimental: For single channel recording procedure, outside-out patch recording was used. The pipettes had resistances of 7-15 MΩ when filled with the intracellular solution of the following composition (mM): KCl 145, MgCl2 1, EGTA 5, HEPES 10, MgATP 5 (pH 7.3). Extracellular solution contained (mM): NaCl 150, KCl 5, CaCl2 2, MgCl2 1, HEPES 10, glucose 10 (pH 7.4). Current and voltage were recorded using an Axopatch-200B amplifier, sample at 4 kHz and filtered at 200 Hz, and digitized using a DigiData 1322A with pClamp 9.2 software (Axon Instruments, Foster City, Calif.).
The open probability (Po) and single channel current (i) were calculated by fitting all-point histograms with single- or multi-Gaussian curves. The ratio of the area under the fitted ‘open’ Gaussian to the total area under the entire Gaussian was taken as Po, and the difference between the fitted “closed” and “open” peaks was taken as i, single channel conductance (γ) was calculated by the equation: γ=i/(V−V5).

Sequence of TRPM8 (Q7Z2W7 whole entry, species assumed): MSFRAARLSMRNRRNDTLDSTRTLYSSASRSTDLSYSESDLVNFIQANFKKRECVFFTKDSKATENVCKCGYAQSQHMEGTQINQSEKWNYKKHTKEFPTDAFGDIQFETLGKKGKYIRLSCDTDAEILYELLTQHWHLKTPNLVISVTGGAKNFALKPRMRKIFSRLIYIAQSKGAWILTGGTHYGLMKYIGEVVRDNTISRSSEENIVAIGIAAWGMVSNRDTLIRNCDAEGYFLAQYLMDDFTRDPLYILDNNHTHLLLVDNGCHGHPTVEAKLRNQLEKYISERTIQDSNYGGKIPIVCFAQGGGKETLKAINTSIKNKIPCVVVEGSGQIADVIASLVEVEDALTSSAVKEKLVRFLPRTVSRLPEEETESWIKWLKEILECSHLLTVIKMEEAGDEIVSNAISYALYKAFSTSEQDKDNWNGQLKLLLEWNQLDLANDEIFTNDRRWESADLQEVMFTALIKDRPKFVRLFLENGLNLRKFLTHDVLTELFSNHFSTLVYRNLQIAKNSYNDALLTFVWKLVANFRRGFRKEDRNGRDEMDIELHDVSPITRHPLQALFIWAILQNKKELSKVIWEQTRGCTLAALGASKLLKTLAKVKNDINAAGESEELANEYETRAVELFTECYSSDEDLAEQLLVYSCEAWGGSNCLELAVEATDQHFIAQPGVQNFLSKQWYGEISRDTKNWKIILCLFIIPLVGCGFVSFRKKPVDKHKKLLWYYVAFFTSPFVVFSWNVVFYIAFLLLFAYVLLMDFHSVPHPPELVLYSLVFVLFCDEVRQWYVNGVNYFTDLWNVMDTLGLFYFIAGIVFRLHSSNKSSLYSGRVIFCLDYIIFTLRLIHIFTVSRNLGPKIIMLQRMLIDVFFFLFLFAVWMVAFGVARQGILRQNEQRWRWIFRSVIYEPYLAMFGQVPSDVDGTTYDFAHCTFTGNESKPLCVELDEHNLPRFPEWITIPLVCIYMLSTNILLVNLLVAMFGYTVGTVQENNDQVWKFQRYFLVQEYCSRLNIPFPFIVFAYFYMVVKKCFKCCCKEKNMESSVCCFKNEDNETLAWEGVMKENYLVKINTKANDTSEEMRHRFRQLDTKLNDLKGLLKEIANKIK

Compound: Oc1c(I)cc(I)c2cccnc12 [5,7-diiodo-8-hydroxyquinoline]
- potentiation of KCNQ2 current amplitude by zinc ionophores (KCNQ2 [1]; +50 mV): None displayed any potentiation effect on current amplitude

Compound: [Cl][Cd][Cl] [CdCl2]
- effect on KCNQ2 current amplitude of metal salt added to sodium pyrithione perfusion (KCNQ2 [1]): did not induce any potentiation

Compound: O=S(=O)([O-])[O-].[Cu+2] [CuSO4]
- effect on KCNQ2 current amplitude of metal salt added to sodium pyrithione perfusion (KCNQ2 [1]): did not induce any potentiation

Compound: CC1CCC(C(C)C)C(O)C1 (centres unmarked) [Menthol]
- V1/2 after menthol binding (TRPM8): −31 mV

Compound: Oc1ccc(N=Nc2ccccn2)c(O)c1 [PAR, 4-(2)-(pyridylazo) resorcinol]
- effect on potentiation induced by sodium pyrithione plus ZnSO4 (KCNQ2 [1]; 100 μM PAR): abolished
- effect on KCNQ2 channel activity, compound alone (KCNQ2 [1]; PAR itself): had no effect on KCNQ2 channel activity

Compound: CCOC(=O)Nc1ccc(NCc2ccc(F)cc2)cc1N [Retigabine, retigabine]
- current potentiation (KCNQ2(A306T)): < 50%
- current potentiation (KCNQ2(R207W)): < 50%
- current potentiation (KCNQ2(Y284C)): < 50%

Compound: CC[N+](CC)(CC)CC [TEA, tetraethylammonium]
- effect on KCNQ2 current (KCNQ2 [1]): completely blocked

Compound: O=S(=O)([O-])[O-].[Zn+2] [ZnSO4]
- effect on KCNQ2 current amplitude of metal salt added to sodium pyrithione perfusion (KCNQ2 [1]): marked increase in current amplitude

Compound: [Zn+2] [Zn^2+]
- effect on KCNQ2 channel, zinc ion alone (KCNQ2 [1]): cannot induce any detectable effect

Compound: CNC1=Nc2ccc(Cl)cc2C(c2ccccc2)=[N+]([O-])C1 [chlordiazepoxide]
- increase of punished lever pressing [2]: > 50%

Compound: O=C1N(c2ccccc2)c2ccccc2C1(Cc1ccncc1)Cc1ccncc1 [linopirdine]
- effect on ZnPy-induced hyperpolarization (hippocampal neurons): completely abolished the hyperpolarization of membrane potential
- effect on KCNQ2 current (KCNQ2 [1]; 30 μM linopirdine, +50 mV): rapid inhibition
- effect on single channel activity (KCNQ2 [3]): fully blocked

Compound: [Na+].[O-][n+]1ccccc1[S-] [sodium pyrithione]
- effect on KCNQ2 current amplitude (KCNQ2 [1]): no change in current amplitude

Source: patent US20110257146A1, “Method of Treating Kcnq Related Disorders Using Organozinc Compounds” (The johns Hopkins University, priority 2006, published 2011)
